Results: the NIST ThermoML archive (doi:10.1016/j.jct.2012.01.013)
Numbers after ± are expanded uncertainties.

Settings: 101.33 kPa, Liquid; for viscosity: Falling or rolling sphere viscometry; for mass density: Vibrating tube method

SMILES	viscosity (293.15 K)	mass density (293.15 K)	viscosity (298.15 K)	mass density (298.15 K)	viscosity (303.15 K)	mass density (303.15 K)	viscosity (308.15 K)	mass density (308.15 K)	viscosity (313.15 K)	mass density (313.15 K)
CC(=O)[O-].Cn1cc[nH+]c1 [1-methylimidazolium acetate]	8.196 ± 0.094 mPa·s	1079.75 ± 0.29 kg/m3	6.926 ± 0.085 mPa·s	1075.33 ± 0.29 kg/m3	5.913 ± 0.079 mPa·s	1070.89 ± 0.29 kg/m3	5.069 ± 0.075 mPa·s	1066.45 ± 0.28 kg/m3	4.395 ± 0.071 mPa·s	1062 ± 0.28 kg/m3
CCCCO [butan-1-ol]	2.941 ± 0.064 mPa·s	809.77 ± 0.14 kg/m3	2.573 ± 0.063 mPa·s	805.98 ± 0.14 kg/m3	2.264 ± 0.062 mPa·s	802.08 ± 0.15 kg/m3	2.002 ± 0.062 mPa·s	798.19 ± 0.15 kg/m3	1.788 ± 0.061 mPa·s	794.36 ± 0.15 kg/m3
CCO [ethanol]	–	789.48 ± 0.15 kg/m3	–	785.41 ± 0.15 kg/m3	–	780.65 ± 0.15 kg/m3	–	776.31 ± 0.15 kg/m3	–	772.08 ± 0.15 kg/m3

The remaining lines, values ahead:

viscosity (293.15 K)	mass density (293.15 K)	viscosity (298.15 K)	mass density (298.15 K)	viscosity (303.15 K)	mass density (303.15 K)	viscosity (308.15 K)	mass density (308.15 K)	viscosity (313.15 K)	mass density (313.15 K)	SMILES
0.588 ± 0.06 mPa·s	791.22 ± 0.15 kg/m3	0.551 ± 0.06 mPa·s	786.52 ± 0.15 kg/m3	0.517 ± 0.06 mPa·s	781.81 ± 0.15 kg/m3	0.486 ± 0.06 mPa·s	777.06 ± 0.15 kg/m3	0.46 ± 0.06 mPa·s	772.27 ± 0.15 kg/m3	CO [methanol]
2.206 ± 0.062 mPa·s	803.58 ± 0.15 kg/m3	1.976 ± 0.062 mPa·s	799.61 ± 0.15 kg/m3	1.737 ± 0.061 mPa·s	795.6 ± 0.15 kg/m3	1.548 ± 0.061 mPa·s	791.51 ± 0.15 kg/m3	1.383 ± 0.061 mPa·s	787.39 ± 0.15 kg/m3	CCCO [propan-1-ol]
1.002 ± 0.06 mPa·s	–	0.891 ± 0.06 mPa·s	–	0.798 ± 0.06 mPa·s	–	0.718 ± 0.06 mPa·s	–	0.652 ± 0.06 mPa·s	–	O [water]
